The results in this text go back to patent US10093623B2, “Cyclic amides as MetAP-2 inhibitors” (MERCK PATENT GmbH, priority 2012, dated 2018).

By pIC50 is commonly meant the negative decadic logarithm of the IC50, by convention in mol/L.

This experiment concerns the target MetAP-2 (Homo sapiens, UniProt P50579). Description: MetAP-2 activity measurement (coupled enzymatic reactions, Met-Arg-Ser substrate, dianisidine detection at 450 nm). To be noted: Inhibition of MetAP-2; read-out: IC50 enzyme. Format: biochemical. An outline of the steps:
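Rate read from the linear part of the 450 nm absorbance trace. Dianisidine oxidation by peroxidase reports H2O2 made when amino acid oxidase acts on methionine cleaved from MAS tripeptide, one mol dye per mol Met; extinction coefficient gives molar activity.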

Each structure is given as a SMILES string. pIC50: −log10 of the molar value.

Chain of MetAP-2 (P50579 whole entry, species assumed): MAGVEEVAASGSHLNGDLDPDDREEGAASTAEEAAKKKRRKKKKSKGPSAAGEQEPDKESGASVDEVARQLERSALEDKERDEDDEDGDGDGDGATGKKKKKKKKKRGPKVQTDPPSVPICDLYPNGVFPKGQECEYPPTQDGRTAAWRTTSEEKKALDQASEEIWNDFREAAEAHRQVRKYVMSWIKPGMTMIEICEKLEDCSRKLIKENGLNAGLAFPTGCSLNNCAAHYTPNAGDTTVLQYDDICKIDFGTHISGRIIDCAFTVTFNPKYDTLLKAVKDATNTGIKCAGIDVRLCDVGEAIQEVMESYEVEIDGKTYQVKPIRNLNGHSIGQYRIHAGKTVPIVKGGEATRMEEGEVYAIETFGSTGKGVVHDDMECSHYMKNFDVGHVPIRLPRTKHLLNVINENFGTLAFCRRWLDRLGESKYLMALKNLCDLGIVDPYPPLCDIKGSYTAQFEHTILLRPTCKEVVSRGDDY

For `O=C(NCc1cc(F)cc(Cl)c1)[C@]1(O)CCN(Cc2ccccc2)C1=O` [A141, N-(3-Chloro-5-fluorobenzyl)-(R)-1-benzyl-3-hydroxy-2-oxo-pyrrolidine-3-carboxamide], the pIC50 was below 5.00.
Under `O=C(NCc1cc(F)cc(Cl)c1)[C@]1(O)CCCCN(c2ccccc2)C1=O` [A67, N-(3-chloro-5-fluorobenzyl)-(R)-3-hydroxy-2-oxo-1-phenylazepane-3-carboxamide] stands below 5.00.
Then `O=C(c1cc2cc(N3CC[C@](O)(C(=O)NCc4cc(F)cc(Cl)c4)C3=O)ccc2[nH]1)N1CCNCC1` [B126, N-(3-Chloro-5-fluorobenzyl)-(S)-3-hydroxy-2-oxo-1-[2-(piperazin-1-carbonyl)-1H-indol-5-yl]-pyrrolidine-3-carboxamide], with 6.00 to 8.00; and `O=C1CCc2cc(N3CC[C@](O)(C(=O)NCc4ccc(F)c(Cl)c4)C3=O)ccc2N1` [A247, N-(3-Chloro-4-fluorobenzyl)-(S)-3-hydroxy-2-oxo-1-(2-oxo-1,2,3,4-tetrahydroquinolin-6-yl)-pyrrolidine-3-carboxamide], with 6.00 to 8.00; and `O=C(NCc1cc(F)cc(Cl)c1)[C@@]1(O)CCN(c2ccc(C(F)(F)F)cc2F)C1=O` [B65, N-(3-Chloro-5-fluorobenzyl)-(S)-1-(2-fluoro-4-trifluoromethyl-phenyl)-3-hydroxy-2-oxo-pyrrolidine-3-carboxamide], with 6.00 to 8.00.
Then `C=C(Cc1ccccc1)C(=O)C1(O)CCN(c2ccccc2)C1=O` (centres unmarked) [A89, 3-(2-benzylacryloyl)-3-hydroxy-1-phenylpyrrolidin-2-one], with below 5.00; and `O=C1CCc2cc(N3CCC(O)(C(=O)NCc4cccc(F)c4Cl)C3=O)ccc2N1` (centres unmarked) [A196, N-(2-Chloro-3-fluorobenzyl)-3-hydroxy-2-oxo-1-(2-oxo-1,2,3,4-tetrahydroquinolin-6-yl)-pyrrolidine-3-carboxamide], with 6.00 to 8.00.
`O=C(c1cc2cc(N3CC[C@](O)(C(=O)NCc4cc(F)cc(Cl)c4)C3=O)ccc2[nH]1)N1CCC1` [B114, N-(3-Chloro-5-fluorobenzyl)-(S)-1-[2-(azetidine-1-carbonyl)-1H-indol-5-yl]-3-hydroxy-2-oxo-pyrrolidine-3-carboxamide]: the pIC50 is 6.00 to 8.00.
Turning to `O=C(NC1CC1)c1cccc(N2CC[C@](O)(C(=O)NCc3cc(F)cc(Cl)c3)C2=O)c1` [A75, N-(3-Chloro-5-fluorobenzyl)-(S)-1-(3-cyclopropylcarbamoylphenyl)-3-hydroxy-2-oxopyrrolidine-3-carboxamide], the pIC50 is 6.00 to 8.00.
Under `CC(=O)Nc1ccc(N2CC[C@@](O)(C(=O)NCCc3cc(F)cc(Cl)c3)C2=O)cn1` [A156, N-[2-(3-Chloro-5-fluorophenyl)-ethyl]-(R)-1-(6-acetylamino-pyridin-3-yl)-3-hydroxy-2-oxo-pyrrolidine-3-carboxamide] stands below 5.00; under `O=C1COc2cc(N3CCC(O)(C(=O)NCc4cc(F)cc(Cl)c4)C3=O)ccc2N1` (centres unmarked) [A151, N-(3-Chloro-5-fluorobenzyl)-3-hydroxy-2-oxo-1-(3-oxo-3,4-dihydro-2H-benzo-1,4-oxazin-7-yl)pyrrolidine-3-carboxamide], 6.00 to 8.00.
As for `O=C1N(CC2CCCCC2)CCCC1(O)CNCc1cc(F)cc(Cl)c1` (centres unmarked) [B18, 3-[(3-Chloro-5-fluorobenzylamino)methyl]-1-cyclohexylmethyl-3-hydroxy-piperidin-2-one], the pIC50 is 6.00 to 8.00.
Then `CNC(=O)c1cccc(N2CC[C@@](O)(C(=O)NCc3cc(F)cc(Cl)c3)C2=O)c1` [A162, N-(3-Chloro-5-fluorobenzyl)-(R)-3-hydroxy-1-(3-methyl-carbamoylphenyl)-2-oxo-pyrrolidine-3-carboxamide], with below 5.00.
As for `Cn1c(CN2CCC(O)(C(=O)NCc3cc(F)cc(Cl)c3)C2=O)nc2ccccc21` (centres unmarked) [A232, N-(3-Chloro-5-fluorobenzyl)-3-hydroxy-1-(1-methyl-1H-benzimidazol-2-ylmethyl)-2-oxo-pyrrolidine-3-carboxamide], the pIC50 is 5.00 to 6.00.
